Values belong to the compound of their own block, whether it stands above or below them.
Key:
[1] = target: T1, Dual specificity tyrosine-phosphorylation-regulated kinase 2 (Homo sapiens) (UniProt Q92630); conditions: at 10 µM
T1 sequence (whole entry): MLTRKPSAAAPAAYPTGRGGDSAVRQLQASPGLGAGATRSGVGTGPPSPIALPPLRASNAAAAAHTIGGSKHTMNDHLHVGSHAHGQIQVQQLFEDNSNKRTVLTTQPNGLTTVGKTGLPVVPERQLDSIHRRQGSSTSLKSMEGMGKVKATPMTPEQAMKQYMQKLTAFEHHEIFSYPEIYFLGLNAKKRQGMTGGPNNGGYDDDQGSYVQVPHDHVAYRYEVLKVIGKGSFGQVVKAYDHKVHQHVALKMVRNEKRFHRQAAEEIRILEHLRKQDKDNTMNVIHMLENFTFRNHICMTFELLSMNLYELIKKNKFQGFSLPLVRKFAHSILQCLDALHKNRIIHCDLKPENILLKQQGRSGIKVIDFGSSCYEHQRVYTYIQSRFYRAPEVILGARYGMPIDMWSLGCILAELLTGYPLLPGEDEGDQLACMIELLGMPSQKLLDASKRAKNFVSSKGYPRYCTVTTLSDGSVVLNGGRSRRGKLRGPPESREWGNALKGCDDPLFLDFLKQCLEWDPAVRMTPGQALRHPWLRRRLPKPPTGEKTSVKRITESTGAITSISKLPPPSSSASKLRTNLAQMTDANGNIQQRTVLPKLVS

[2] = target: Macrophage colony-stimulating factor 1 receptor (Homo sapiens) (UniProt P07333); assay: Selectivity interaction (Millipore kinase profiler) EUB0000124b CSF1R; conditions: at 10 µM
[3] = target: T2, Myotonin-protein kinase (Homo sapiens) (UniProt Q09013); assay: Selectivity interaction (Kinase panel (Invitrogen)) EUB0000639a DMPK; conditions: at 200 nM
T2 sequence (whole entry): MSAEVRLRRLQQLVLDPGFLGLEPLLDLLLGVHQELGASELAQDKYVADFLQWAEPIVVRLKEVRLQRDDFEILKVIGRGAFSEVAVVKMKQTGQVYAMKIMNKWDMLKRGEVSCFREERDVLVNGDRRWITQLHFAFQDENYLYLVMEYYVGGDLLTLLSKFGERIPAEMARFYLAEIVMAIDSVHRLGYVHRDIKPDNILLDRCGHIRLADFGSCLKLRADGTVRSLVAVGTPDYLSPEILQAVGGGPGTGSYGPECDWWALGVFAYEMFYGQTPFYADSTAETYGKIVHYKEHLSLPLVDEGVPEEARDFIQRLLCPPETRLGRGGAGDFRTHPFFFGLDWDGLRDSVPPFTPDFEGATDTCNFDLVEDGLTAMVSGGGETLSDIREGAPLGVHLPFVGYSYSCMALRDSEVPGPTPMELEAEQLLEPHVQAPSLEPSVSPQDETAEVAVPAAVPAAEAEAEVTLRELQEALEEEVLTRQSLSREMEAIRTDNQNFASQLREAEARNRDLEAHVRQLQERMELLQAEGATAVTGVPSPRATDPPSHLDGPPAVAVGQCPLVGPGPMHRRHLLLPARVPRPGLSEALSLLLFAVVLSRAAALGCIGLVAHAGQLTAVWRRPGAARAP

[4] = target: Tyrosine-protein kinase Fgr (Homo sapiens) (UniProt P09769); assay: Selectivity interaction (Kinase panel (Z-LYTE Assay)) EUB0001632a FGR; conditions: at 10 µM
[5] = target: LIM domain kinase 1 (Homo sapiens) (UniProt P53667); assay: Selectivity interaction (KinomeScan (DiscoverX)) EUB0000229b LIMK1; conditions: at 10 µM
[6] = target: 4-aminobutyrate aminotransferase, mitochondrial (Homo sapiens, UniProt P80404); assay: Selectivity interaction (GPCR panel (PDSP screen)) EUB0001079a ABAT; conditions: at 10 µM
[7] = target: Serine/threonine-protein kinase PAK 1 (Homo sapiens) (UniProt Q13153); assay: Selectivity interaction (KinomeScan (DiscoverX)) EUB0001079a PAK1; conditions: at 1 µM
[8] = target: RAC-gamma serine/threonine-protein kinase (Homo sapiens, UniProt Q9Y243); assay: Selectivity interaction (ProQinase) EUB0000171b AKT3
[9] = target: T3, Serine/threonine-protein kinase 36 (Homo sapiens) (UniProt Q9NRP7); assay: Selectivity interaction (KinomeScan (DiscoverX)) EUB0000092b STK36; conditions: at 10 µM
T3 sequence (whole entry): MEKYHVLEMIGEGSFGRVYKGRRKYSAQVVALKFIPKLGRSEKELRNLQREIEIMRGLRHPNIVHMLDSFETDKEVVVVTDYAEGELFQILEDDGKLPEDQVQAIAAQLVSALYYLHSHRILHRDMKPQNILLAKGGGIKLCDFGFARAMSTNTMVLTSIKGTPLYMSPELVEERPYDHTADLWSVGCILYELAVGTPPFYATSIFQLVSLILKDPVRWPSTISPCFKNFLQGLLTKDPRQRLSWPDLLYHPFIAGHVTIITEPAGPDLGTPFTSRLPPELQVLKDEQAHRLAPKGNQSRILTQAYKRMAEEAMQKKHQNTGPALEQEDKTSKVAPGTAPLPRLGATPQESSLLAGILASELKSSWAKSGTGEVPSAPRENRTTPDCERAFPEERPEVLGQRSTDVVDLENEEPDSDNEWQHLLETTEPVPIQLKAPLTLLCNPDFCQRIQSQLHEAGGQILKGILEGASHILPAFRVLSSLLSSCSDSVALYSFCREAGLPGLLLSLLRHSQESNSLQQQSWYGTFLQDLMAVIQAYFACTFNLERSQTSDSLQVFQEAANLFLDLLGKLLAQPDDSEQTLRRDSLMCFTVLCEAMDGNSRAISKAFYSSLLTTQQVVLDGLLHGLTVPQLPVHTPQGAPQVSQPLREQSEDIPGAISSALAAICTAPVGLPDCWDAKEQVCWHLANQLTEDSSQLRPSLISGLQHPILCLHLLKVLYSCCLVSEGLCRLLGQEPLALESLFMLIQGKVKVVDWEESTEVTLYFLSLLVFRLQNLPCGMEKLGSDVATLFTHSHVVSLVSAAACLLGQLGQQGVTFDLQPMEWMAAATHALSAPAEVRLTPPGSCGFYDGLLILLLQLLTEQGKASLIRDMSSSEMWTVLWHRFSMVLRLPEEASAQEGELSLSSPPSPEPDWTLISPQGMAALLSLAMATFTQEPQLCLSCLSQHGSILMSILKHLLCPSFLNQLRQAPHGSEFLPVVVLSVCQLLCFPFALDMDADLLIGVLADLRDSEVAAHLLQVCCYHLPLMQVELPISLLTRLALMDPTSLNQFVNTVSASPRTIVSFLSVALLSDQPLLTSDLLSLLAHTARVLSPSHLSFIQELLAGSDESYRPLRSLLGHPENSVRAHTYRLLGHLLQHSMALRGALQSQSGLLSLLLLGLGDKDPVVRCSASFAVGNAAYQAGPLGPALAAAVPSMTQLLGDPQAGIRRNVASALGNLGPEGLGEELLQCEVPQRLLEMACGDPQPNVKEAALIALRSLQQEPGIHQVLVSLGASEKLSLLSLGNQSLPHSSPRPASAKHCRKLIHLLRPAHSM

Chain of RAC-gamma serine/threonine-protein kinase (Q9Y243 whole entry): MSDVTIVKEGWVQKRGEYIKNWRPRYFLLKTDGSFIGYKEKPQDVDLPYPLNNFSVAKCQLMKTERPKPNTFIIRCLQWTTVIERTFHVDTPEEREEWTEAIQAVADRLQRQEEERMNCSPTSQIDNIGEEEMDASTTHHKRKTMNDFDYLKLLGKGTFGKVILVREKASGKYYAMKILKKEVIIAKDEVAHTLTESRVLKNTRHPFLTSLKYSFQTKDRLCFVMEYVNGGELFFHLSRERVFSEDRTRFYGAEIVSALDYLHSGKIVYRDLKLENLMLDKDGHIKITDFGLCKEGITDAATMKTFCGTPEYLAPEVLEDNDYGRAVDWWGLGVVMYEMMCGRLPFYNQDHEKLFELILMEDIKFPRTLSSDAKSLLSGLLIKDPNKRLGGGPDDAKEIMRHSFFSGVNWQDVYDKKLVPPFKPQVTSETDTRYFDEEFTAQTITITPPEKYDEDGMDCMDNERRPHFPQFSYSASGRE
Chain of Macrophage colony-stimulating factor 1 receptor (Homo sapiens) (P07333 whole entry): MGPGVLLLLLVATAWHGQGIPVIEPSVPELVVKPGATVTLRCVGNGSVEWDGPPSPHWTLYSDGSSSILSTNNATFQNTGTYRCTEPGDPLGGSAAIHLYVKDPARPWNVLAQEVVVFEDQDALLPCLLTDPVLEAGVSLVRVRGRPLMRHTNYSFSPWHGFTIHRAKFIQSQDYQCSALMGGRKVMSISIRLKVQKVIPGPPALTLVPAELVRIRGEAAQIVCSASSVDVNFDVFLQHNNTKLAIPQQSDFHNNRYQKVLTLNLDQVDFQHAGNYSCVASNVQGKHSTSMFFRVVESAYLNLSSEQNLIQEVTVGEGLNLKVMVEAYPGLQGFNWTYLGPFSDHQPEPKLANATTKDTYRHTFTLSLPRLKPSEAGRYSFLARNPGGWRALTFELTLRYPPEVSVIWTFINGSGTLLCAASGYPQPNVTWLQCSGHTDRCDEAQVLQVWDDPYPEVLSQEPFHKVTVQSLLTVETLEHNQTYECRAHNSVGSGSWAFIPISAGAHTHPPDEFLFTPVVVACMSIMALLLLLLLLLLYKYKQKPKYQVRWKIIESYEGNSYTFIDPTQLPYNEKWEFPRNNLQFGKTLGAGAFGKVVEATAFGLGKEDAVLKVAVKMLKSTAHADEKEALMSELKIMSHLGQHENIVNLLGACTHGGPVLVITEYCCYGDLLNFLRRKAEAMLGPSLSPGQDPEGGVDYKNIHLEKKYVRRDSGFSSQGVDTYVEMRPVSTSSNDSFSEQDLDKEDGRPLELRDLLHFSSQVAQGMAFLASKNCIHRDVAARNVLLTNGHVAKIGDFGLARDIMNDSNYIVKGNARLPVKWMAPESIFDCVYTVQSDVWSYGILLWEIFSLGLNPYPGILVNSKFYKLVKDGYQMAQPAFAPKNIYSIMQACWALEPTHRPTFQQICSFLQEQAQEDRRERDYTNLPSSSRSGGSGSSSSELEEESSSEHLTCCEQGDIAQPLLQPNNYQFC
Chain of 4-aminobutyrate aminotransferase, mitochondrial (P80404 whole entry): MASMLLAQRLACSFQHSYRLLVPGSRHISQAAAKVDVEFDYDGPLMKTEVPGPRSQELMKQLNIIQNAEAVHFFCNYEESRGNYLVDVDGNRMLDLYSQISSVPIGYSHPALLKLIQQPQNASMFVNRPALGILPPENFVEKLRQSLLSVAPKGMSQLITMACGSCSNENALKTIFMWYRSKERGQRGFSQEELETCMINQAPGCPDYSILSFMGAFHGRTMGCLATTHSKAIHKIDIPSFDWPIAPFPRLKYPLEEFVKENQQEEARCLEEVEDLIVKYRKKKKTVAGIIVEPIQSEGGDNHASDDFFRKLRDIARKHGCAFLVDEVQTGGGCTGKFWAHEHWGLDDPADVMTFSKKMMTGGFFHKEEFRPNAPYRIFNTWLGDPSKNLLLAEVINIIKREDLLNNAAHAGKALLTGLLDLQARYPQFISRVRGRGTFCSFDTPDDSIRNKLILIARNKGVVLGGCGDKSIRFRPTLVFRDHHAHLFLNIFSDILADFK
Chain of Tyrosine-protein kinase Fgr (Homo sapiens) (P09769 2-529 limits assumed): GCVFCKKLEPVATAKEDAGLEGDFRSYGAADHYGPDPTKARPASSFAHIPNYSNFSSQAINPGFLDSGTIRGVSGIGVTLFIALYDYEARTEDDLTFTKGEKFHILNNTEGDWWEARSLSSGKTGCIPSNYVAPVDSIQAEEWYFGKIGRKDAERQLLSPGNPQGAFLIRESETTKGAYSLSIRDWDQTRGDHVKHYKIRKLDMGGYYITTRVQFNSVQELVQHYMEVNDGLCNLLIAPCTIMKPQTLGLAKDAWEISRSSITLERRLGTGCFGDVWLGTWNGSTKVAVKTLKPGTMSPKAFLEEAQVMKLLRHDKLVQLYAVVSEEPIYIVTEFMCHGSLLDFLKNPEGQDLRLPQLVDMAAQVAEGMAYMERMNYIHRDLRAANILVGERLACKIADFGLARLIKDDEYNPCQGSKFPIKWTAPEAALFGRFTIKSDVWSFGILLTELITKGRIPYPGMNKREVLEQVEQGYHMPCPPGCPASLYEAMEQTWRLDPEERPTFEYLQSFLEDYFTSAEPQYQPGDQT
Chain of LIM domain kinase 1 (Homo sapiens) (P53667 whole entry, looked up, the tested form may be a part): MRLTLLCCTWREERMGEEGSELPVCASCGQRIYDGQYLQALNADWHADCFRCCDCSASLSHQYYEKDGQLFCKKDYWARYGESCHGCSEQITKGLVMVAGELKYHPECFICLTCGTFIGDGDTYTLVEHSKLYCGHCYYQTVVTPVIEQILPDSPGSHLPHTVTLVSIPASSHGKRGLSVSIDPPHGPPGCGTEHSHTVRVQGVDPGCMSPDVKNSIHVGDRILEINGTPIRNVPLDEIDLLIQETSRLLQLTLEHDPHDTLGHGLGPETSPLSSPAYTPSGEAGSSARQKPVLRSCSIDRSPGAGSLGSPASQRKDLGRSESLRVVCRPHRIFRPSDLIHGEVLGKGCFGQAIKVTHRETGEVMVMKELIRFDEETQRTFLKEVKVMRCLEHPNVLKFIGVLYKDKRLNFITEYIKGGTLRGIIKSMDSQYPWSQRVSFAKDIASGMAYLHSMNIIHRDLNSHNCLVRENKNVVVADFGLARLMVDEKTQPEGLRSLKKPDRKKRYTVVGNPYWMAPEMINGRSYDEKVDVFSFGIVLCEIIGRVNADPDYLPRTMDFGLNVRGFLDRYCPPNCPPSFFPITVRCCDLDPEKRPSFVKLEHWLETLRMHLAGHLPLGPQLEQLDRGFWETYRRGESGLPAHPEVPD
Chain of Serine/threonine-protein kinase PAK 1 (Homo sapiens) (Q13153 whole entry): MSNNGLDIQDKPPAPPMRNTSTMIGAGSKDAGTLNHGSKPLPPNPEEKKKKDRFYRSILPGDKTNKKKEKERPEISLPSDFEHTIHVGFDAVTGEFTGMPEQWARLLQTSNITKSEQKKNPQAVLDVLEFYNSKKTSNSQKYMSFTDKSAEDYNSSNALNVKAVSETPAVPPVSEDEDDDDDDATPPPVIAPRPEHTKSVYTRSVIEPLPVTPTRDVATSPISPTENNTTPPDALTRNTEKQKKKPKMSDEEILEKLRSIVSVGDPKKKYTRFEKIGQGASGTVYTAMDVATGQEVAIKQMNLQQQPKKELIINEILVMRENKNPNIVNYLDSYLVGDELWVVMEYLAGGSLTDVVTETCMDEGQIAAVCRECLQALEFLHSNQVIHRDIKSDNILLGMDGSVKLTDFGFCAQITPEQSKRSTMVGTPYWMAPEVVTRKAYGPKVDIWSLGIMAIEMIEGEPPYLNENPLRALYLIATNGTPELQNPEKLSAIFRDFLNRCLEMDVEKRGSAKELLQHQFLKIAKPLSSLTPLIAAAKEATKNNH

SMILES: Cc1cc([C@@H](C)Nc2ccccc2C(=O)O)c2nc(N3CCOCC3)cc(=O)n2c1 [AZD-6482]
% of control [1]: 89%

% of control [2]: 128%
SMILES: CC(=O)Nc1cccc(-n2c(=O)n(C3CC3)c(=O)c3c(Nc4ccc(I)cc4F)n(C)c(=O)c(C)c32)c1

% of inhibition [3]: -0.603%
SMILES: CC[C@@H]1[C@H](F)C(=O)N[C@@H]1COc1nccc2cc(C(N)=O)c(OC)cc12 [ZIMLOVISERTIB]

% of control [4]: 1.86%
SMILES: Cn1cc(-n2cnc3c(NCc4nc5cc(Cl)c(Cl)cc5[nH]4)nc(N4CCOCC4)nc32)cn1

SMILES: COc1cc(N(C)c2ccnc3ccc(C(F)(F)F)cc23)cc(OC)c1OC
% binding [5]: 89%

SMILES: Nc1cnc(N2CCc3cc(S(=O)(=O)Nc4c(F)cc(Cl)cc4F)cc(N4CCCC4=O)c32)nc1 [TP-020n]
% of inhibition [6]: -2.65% | % of control [7]: 89%

% of control ([8]; at 1 µM): 95% | % of control ([8]; at 5 µM): 90%
SMILES: C=CC(=O)Nc1cccc(C(=O)Nc2ccc(Nc3cc(-c4[nH]c(SC)nc4C)ccn3)cc2)c1

SMILES: CCC(=O)N1CCN(c2ccc(-n3c(=O)ccc4cnc5ccc(-c6cnc7ccccc7c6)cc5c43)cc2C(F)(F)F)CC1
% of control [9]: 17%
